Experimental data taken from US20100298141A1, “SUBSTITUTED PYRIDINE N-OXIDE HERBICIDES” (E. I. DU PONT DE NEMOURS AND COMPANY, priority 2007, published 2010).

What was measured:
barnyardgrass = test: Test C flooded paddy test; type: in vivo, Echinochloa crus-galli; details: Flood
Outline: (§1)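 Visual injury ratings against untreated controls, taken 13 to 15 days after compound was added to paddy water standing 3 cm above the soil.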

Goosegrass = test: Test C pre-/postemergence test; type: in vivo, Eleusin indica; details: Preemergence
Outline: (§2)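 Seeds were planted and treated preemergence with test chemical in a non-phytotoxic solvent mixture containing surfactant. Postemergence applications of the same formulation went onto plants 2 to 18 cm tall (1- to 4-leaf stage). A dash marks no test result.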

bermudagrass = test: Test C pre-/postemergence test; type: in vivo, Cynodon dactylon
Outline: as §2

umbrella sedge = test: Test C flooded paddy test; type: in vivo, Cyperus difformis; details: Flood
Outline: as §1

soybean = test: Test C pre-/postemergence test; type: in vivo, Glycine max; details: Preemergence
Outline: as §2

wheat [1] = test: Test A pre-/postemergence greenhouse test; type: in vivo, Triticum aestivum; details: for Wheat plant response rating: 0 to 100 scale
Outline: (§3)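 Pre: directed soil spray on seeded loam/sand. Post: foliar spray, plants 2–10 cm, 1–2 leaf stage, applied concurrently. Vehicle: non-phytotoxic solvent + surfactant. Greenhouse ~10 d; visual injury rating vs untreated controls.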

crabgrass = test: Test A pre-/postemergence greenhouse test; type: in vivo, Digitaria sanguinalis; details: for Crabgrass, Large plant response rating: 0 to 100 scale
Outline: as §3

wheat [2] = test: Test C pre-/postemergence test; type: in vivo, Triticum aestivum; details: Preemergence
Outline: as §2

corn = test: Test A pre-/postemergence greenhouse test; type: in vivo, Zea mays; details: for Corn plant response rating: 0 to 100 scale
Outline: as §3

catchweed bedstraw = test: Test C pre-/postemergence test; type: in vivo, Galium aparine; details: Preemergence
Text: Seeds of plant species selected from blackgrass (Alopecurus myosuroides), downy brome (Bromus tectorum), green foxtail (Setaria viridis), Italian ryegrass (Lolium multiflorum), wheat (Triticum aestivum), wild oat (Avena fatua), catchweed bedstraw (Galium aparine), Russian thistle (Salsola kali), […] (Cynodon dactylon), Surinam grass (Brachiaria decumbens), cocklebur (Xanthium strumarium), corn (Zea mays), crabgrass (Digitaria sanguinalis), woolly cupgrass (Eriochloa villosa), giant foxtail (Setaria faberii), Goosegrass (Eleusin indica), johnsongrass (Sorghum halepense), kochia (Kochia scoparia), lambsquarters (Chenopodium album), morningglory (Ipomoea coccinea), eastern black nightshade (Solanum ptycanthum), yellow nutsedge (Cyperus esculentus), pigweed (Amaranthus retroflexus), common ragweed (Ambrosia elation), soybean (Glycine max), common (oilseed) sunflower (Helianthus annuus), and velvetleaf (Abutilon theophrasti) were planted and treated preemergence with test chemicals formulated in a non-phytotoxic solvent mixture which included a surfactant. At the same time, plants selected from these crop and weed species and also winter barley (Hordeum vulgare), canarygrass (Phalaris minor), and chickweed (Stellaria media) were treated with postemergence applications of some of the test chemicals formulated in the same manner. Plants ranged in height from 2 to 18 cm (1- to 4-leaf stage) for postemergence treatments. […] At time of treatment, test pots were flooded to 3 cm above the soil surface, treated by application of test compounds directly to the paddy water, and then maintained at that water depth for the duration of the test. […] A dash (-) response means no test result.

pigweed = test: Test C pre-/postemergence test; type: in vivo, Amaranthus retroflexus; details: Preemergence
Outline: as §2

Italian ryegrass = test: Test C pre-/postemergence test; type: in vivo, Lolium multiflorum; details: Preemergence
Outline: as §2

[3] = system: common (oilseed) sunflower; test: Test C pre-/postemergence test; type: in vivo, Helianthus annuus; details: Preemergence
Outline: as §2

giant foxtail = test: Test A pre-/postemergence greenhouse test; type: in vivo, Setaria faberi; details: for Foxtail, Giant plant response rating: 0 to 100 scale
Outline: as §3

morningglory = test: Test A pre-/postemergence greenhouse test; type: in vivo, Ipomoea spp.; details: for Morningglory plant response rating: 0 to 100 scale
Outline: as §3

yellow nutsedge = test: Test C pre-/postemergence test; type: in vivo, Cyperus esculentus; details: Preemergence
Outline: as §2

[4] = 31 g ai/ha, scale 0 to 100 (0 no effect, 100 complete control)
[5] = 62 g ai/ha, scale 0 to 100, 0 no effect, 100 complete control, 13 to 15 days
[6] = 125 g ai/ha, scale 0 to 100, 0 no effect, 100 complete control, 13 to 15 days
[7] = 250 g ai/ha, scale 0 to 100, 0 no effect, 100 complete control, 13 to 15 days
[8] = Postemergence, 125 g ai/ha, 0 is no effect, 100 is complete control
[9] = Postemergence, 500 g ai/ha, 0 is no effect, 100 is complete control
[10] = Preemergence, 125 g ai/ha, 0 no effect, 100 complete control
[11] = Preemergence, 500 g ai/ha, 0 to 100 scale where 0 is no effect and 100 is complete control

Cn1nc(C(F)(F)F)c(C[S+]([O-])c2cc(C(F)(F)F)cc[n+]2[O-])c1Cl (racemic) [Compound 34]
Plant response rating, Barnyardgrass (barnyardgrass; [4]): 0 | Plant response rating, Barnyardgrass (barnyardgrass; [5]): 0 | Plant response rating, Barnyardgrass (barnyardgrass; [6]): 0 | Plant response rating, Barnyardgrass (barnyardgrass; [7]): 30 | Goosegrass plant response rating (Goosegrass; 62 g ai/ha, scale 0 to 100): 98 | Plant response rating, Goosegrass (Goosegrass; [4]): 98 | Plant response rating (0 to 100), Goosegrass (Goosegrass; 250 g ai/ha): 100 | Bermudagrass plant response rating (bermudagrass; 62 g ai/ha, Preemergence, scale 0 to 100 (0 no effect, 100 complete control)): 100 | Plant response rating, Bermudagrass (bermudagrass; Preemergence, 31 g ai/ha, scale 0 to 100 (0 no effect, 100 complete control)): 75 | Plant response rating (0 to 100), Bermudagrass (bermudagrass; Preemergence, 250 g ai/ha): 100 | Bermudagrass plant response rating (bermudagrass; preemergence, 125 g ai/ha, scale 0 (no effect) to 100 (complete control)): 100 | Plant response rating, Sedge, Umbrella (umbrella sedge; [4]): 0 | Plant response rating, Sedge, Umbrella (umbrella sedge; [5]): 85 | Plant response rating, Sedge, Umbrella (umbrella sedge; [6]): 85 | Plant response rating, Sedge, Umbrella (umbrella sedge; [7]): 90 | Soybean plant response rating (soybean; 62 g ai/ha, scale 0 to 100): 0 | Plant response rating, Soybean (soybean; [4]): 0 | Wheat plant response rating (wheat [1]; [8]): 0 | Wheat plant response rating (wheat [1]; [9]): 0 | Wheat plant response rating (wheat [1]; [10]): 30 | Plant response rating, Wheat (wheat [1]; [11]): 50 | Crabgrass, Large plant response rating (crabgrass; [8]): 10 | Crabgrass, Large plant response rating (crabgrass; [9]): 70 | Crabgrass, Large plant response rating (crabgrass; [10]): 60 | Plant response rating, Crabgrass, Large (crabgrass; [11]): 70 | Wheat plant response rating (wheat [2]; 62 g ai/ha, scale 0 to 100): 10 | Plant response rating, Wheat (wheat [2]; [4]): 0 | Corn plant response rating (corn; [8]): 0 | Corn plant response rating (corn; [9]): 20 | Corn plant response rating (corn; [10]): 0 | Plant response rating, Corn (corn; [11]): 0 | Plant response rating, Galium (catchweed bedstraw; [4]): 0 | Plant response rating (0 to 100), Galium (catchweed bedstraw; 250 g ai/ha): 100 | Pigweed plant response rating (pigweed; 62 g ai/ha, scale 0 to 100): 100 | Plant response rating, Pigweed (pigweed; [4]): 100 | Ryegrass, Italian plant response rating (Italian ryegrass; 62 g ai/ha, scale 0 to 100): 0 | Plant response rating, Ryegrass, Italian (Italian ryegrass; [4]): 0 | Sunflower plant response rating ([3]; 62 g ai/ha, scale 0 to 100): 0 | Plant response rating, Sunflower [3, 4]: 0 | Foxtail, Giant plant response rating (giant foxtail; [8]): 10 | Foxtail, Giant plant response rating (giant foxtail; [9]): 60 | Foxtail, Giant plant response rating (giant foxtail; [10]): 100 | Plant response rating, Foxtail, Giant (giant foxtail; [11]): 100 | Morningglory plant response rating (morningglory; [8]): 0 | Morningglory plant response rating (morningglory; [9]): 30 | Morningglory plant response rating (morningglory; [10]): 50 | Plant response rating, Morningglory (morningglory; [11]): 80 | Nutsedge, Yellow plant response rating (yellow nutsedge; 62 g ai/ha, scale 0 to 100): 70 | Plant response rating, Nutsedge, Yellow (yellow nutsedge; [4]): 70
